Target: T1, BTK protein (Homo sapiens, UniProt Q06187)
T1 construct: endogenous in cells; host or cells: TMD-8 cells
Experiment: Measurement of BTK protein degradation ability in TMD-8 cells (Western blotting)
Assay type: cell-based
Conditions: harvested after 24 hours; for BTK degradation (%) 1 nM: compound 1 nM; for BTK degradation (%) 10 nM: compound 10 nM; for BTK degradation (%) 100 nM: compound 100 nM
Summary of the method: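 BTK levels were measured by immunoblotting of equal-protein RIPA lysates, normalized to GAPDH or β-actin, with chemiluminescent or infrared detection. Lysates came from TMD-8 cells exposed to compound for 24 h at final concentrations of 0.1, 1, 10 μM or 0.0001–0.1 μM, against a DMSO control.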

T1 sequence (Q06187 whole entry): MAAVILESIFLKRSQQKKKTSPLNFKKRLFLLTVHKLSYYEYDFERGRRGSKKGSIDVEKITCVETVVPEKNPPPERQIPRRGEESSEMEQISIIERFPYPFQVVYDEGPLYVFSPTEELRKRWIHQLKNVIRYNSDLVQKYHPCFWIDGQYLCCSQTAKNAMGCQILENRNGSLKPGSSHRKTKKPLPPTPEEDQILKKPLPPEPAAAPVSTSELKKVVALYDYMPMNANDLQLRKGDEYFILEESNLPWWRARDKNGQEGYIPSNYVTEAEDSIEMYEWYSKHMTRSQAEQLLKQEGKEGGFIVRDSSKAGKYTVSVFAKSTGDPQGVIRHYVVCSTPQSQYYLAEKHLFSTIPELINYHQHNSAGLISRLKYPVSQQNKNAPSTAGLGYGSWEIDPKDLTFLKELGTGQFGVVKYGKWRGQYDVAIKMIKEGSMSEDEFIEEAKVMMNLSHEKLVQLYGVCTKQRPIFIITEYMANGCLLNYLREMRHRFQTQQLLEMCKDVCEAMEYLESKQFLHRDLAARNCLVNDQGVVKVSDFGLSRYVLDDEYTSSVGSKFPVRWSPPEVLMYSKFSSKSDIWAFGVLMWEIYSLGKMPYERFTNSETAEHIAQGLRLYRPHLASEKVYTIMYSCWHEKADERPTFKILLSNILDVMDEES

Cc1cc(-c2ccnc(Nc3ccc(N4CCN(CC5CCN(c6cccc(N7CCC(=O)NC7=O)c6)CC5)CC4)cc3)n2)ccc1CNC(=O)c1cnn(C(C)(C)C)c1 [Example 81, 1-(tert-butyl)-N-(4-(2-((4-(4-((1-(3-(2,4-dioxotetrahydropyrimidin-1 (2H)-yl)phenyl)piperidin-4-yl)methyl)piperazin-1-yl)phenyl)amino)pyrimidin-4-yl)-2-methylbenzyl)-1H-pyrazole-4-carboxamide]
BTK degradation (%) 1 nM: 65.0%
BTK degradation (%) 10 nM: 97.0%
BTK degradation (%) 100 nM: 99.5%

Cc1cc(-c2ccnc(Nc3ccc(N4CCN(CC5CCN(c6cccc(N7CCC(=O)NC7=O)c6)CC5)CC4)nc3)n2)ccc1CNC(=O)c1cnn(C(C)C)c1 [Example 82, N-(4-(2-((6-(4-((1-(3-(2,4-dioxotetrahydropyrimidin-1 (2H)-yl)phenyl)piperidin-4-yl)methyl)piperazin-1-yl)pyridin-3-yl)amino)pyrimidin-4-yl)-2-methylbenzyl)-1-isopropyl-1H-pyrazole-4-carboxamide]
BTK degradation (%) 1 nM: 32.0%
BTK degradation (%) 10 nM: 87.5%
BTK degradation (%) 100 nM: 99.5%

Cc1cc(-c2ccnc(Nc3ccc(N4CCN(CC5CCN(c6cccc(N7CCC(=O)NC7=O)c6)CC5)CC4)nc3)n2)ccc1CNC(=O)c1cnn(C(C)(C)C)c1 [Example 83, 1-(tert-butyl)-N-(4-(2-((6-(4-((1-(3-(2,4-dioxotetrahydropyrimidin-1 (2H)-yl)phenyl)piperidin-4-yl)methyl)piperazin-1-yl)pyridin-3-yl)amino)pyrimidin-4-yl)-2-methylbenzyl)-1H-pyrazole-4-carboxamide]
BTK degradation (%) 1 nM: 51.0%
BTK degradation (%) 10 nM: 96.5%
BTK degradation (%) 100 nM: 99.5%

Cc1cc(-c2ccnc(Nc3ccc(C4CCN(CC5CCN(c6cccc(N7CCC(=O)NC7=O)c6)CC5)CC4)cc3)n2)ccc1CNC(=O)c1cnn(C(C)C)c1 [Example 84, N-(4-(2-((4-(1-((1-(3-(2,4-dioxotetrahydropyrimidin-1 (2H)-yl)phenyl)piperidin-4-yl)methyl)piperidin-4-yl)phenyl)amino)pyrimidin-4-yl)-2-methylbenzyl)-1-isopropyl-1H-pyrazole-4-carboxamide]
BTK degradation (%) 1 nM: 36.0%
BTK degradation (%) 10 nM: 92.0%
BTK degradation (%) 100 nM: 99.0%

Cc1cc(-c2ccnc(Nc3ccc(C4CCN(CC5CCN(c6cccc(N7CCC(=O)NC7=O)c6)CC5)CC4)cc3)n2)ccc1CNC(=O)c1cnn(C(C)(C)C)c1 [Example 85, 1-(tert-butyl)-N-(4-(2-((4-(1-((1-(3-(2,4-dioxotetrahydropyrimidin-1 (2H)-yl)phenyl)piperidin-4-yl)methyl)piperidin-4-yl)phenyl)amino)pyrimidin-4-yl)-2-methylbenzyl)-1H-pyrazole-4-carboxamide]
BTK degradation (%) 1 nM: 45.5%
BTK degradation (%) 10 nM: 93.5%
BTK degradation (%) 100 nM: 98.5%

COc1ccc(C(=O)N2CCC(CN3CCN(c4ccc(Nc5nccc(-c6ccc(CNC(=O)N7CC(OC(C)C)C7)c(C)c6)n5)cc4)CC3)CC2)cc1N1CCC(=O)NC1=O [Example 86, N-(4-(2-((4-(4-((1-(3-(2,4-dioxotetrahydropyrimidin-1 (2H)-yl)-4-methoxybenzoyl)piperidin-4-yl)methyl)piperazin-1-yl)phenyl)amino)pyrimidin-4-yl)-2-methylbenzyl)-3-isopropoxyazetidine-1-carboxamide]
BTK degradation (%) 1 nM: 22%
BTK degradation (%) 10 nM: 90%
BTK degradation (%) 100 nM: 97.5%
